Measured values reported in article PMC9649909, “Wnt-pathway inhibitors with selective activity against triple-negative breast cancer: From thienopyrimidine to quinazoline inhibitors” (Frontiers in Pharmacology, 2022).
Read-outs that look alike come from different tables or passages of the source.

Key:
HCC1806 TNBC cell line = assay: MTT survival assay HCC1806; format: cell-based; conditions: for IC50: Homo sapiens, HCC1806
Method: (§1) Indicated TNBC cell lines were detached and resuspended at 120,000 cells/ml and added into each well of a transparent 384-well plate in the final volume of 20 µl/well. The cells were maintained in DMEM containing 10% FBS at 37°C, 5% CO2 overnight. Next day, the medium in each well was replaced by 40 μl of the fresh one containing the indicated concentrations of compounds. In case of drug combination experiments, each compound dilution was delivered in corresponding well in 20 μl of medium. […] After incubation for 3–4 days, depending on the cell line, the medium in each well was replaced by 25 μl of 0.5 mg/ml Thiazolyl blue solution in 1xPBS following by incubation for 3 h at 37°C. Then the solution was removed and 25 μl DMSO was added into each well. Absorbance at 510 nm was measured in a Tecan Infinite M200 PRO plate reader.

in vitro = conditions: human
Method: The simplicity of the scaffold combined with synthetic accessibility allows building a library of compounds and performing structure activity relationship (SAR) studies of the three main parts of the molecule: the top part, the linker and the core (Figure 2).
The synthesized compounds were used to explore SAR of three defined areas of investigation (Figure 2). All compounds were tested in the HCC1395 TNBC cell line using the GSK3β inhibitor to induce β-catenin signaling since 4a acted downstream of GSK3β (Figure 2). Both inhibition of β-catenin signaling measured by the TopFlash reporter and cytotoxicity measured by the Renilla reporter were assessed.
The Wnt3a or CHIR99021-stimulated luciferase activity in HCC1395 TNBC cell line stably transfected with the TopFlash reporter was analyzed essentially as described for the BT-20 TNBC cell line ([Shaw et al., 2019b]; [Koval et al., 2021]). Reporter cells were seeded at 10,000 cells/well in a white opaque 384-well plate in the final volume of 20 μl of DMEM medium supplemented with 10% FCS. The cells were maintained incubated at 37°C, 5% CO2 overnight for attachment. Subsequently, they were transfected by a plasmid encoding constitutively expressed Renilla luciferase under the CMV promoter overall as described in the manufacturer’s protocol using 12 μg/ml of DNA and 40 μl/ml XtremeGENE nine reagent. The next day, the medium in each well was replaced with a 10 μl of fresh medium containing compound of interest, and, after 1 h of preincubation with the compounds, additional 10 μl of medium supplemented with Wnt3a [purified as described ([Willert et al., 2003]; [Koval and Katanaev, 2011])] or CHIR99021 were added creating respective final concentrations of 2.5 μg/ml or 5 μM of each. In case of other signal transduction reporters, no additional stimulation was performed. Compound dilutions were prepared by serial dilution in DMSO and diluted with the amount of medium necessary to obtain their final concentrations indicated on the figures and tables and maintain concentration of DMSO of 0.5% in all assay points. After overnight incubation, the supernatant in each well was removed, and the luciferase activity was measured as described ([Dyer et al., 2000]; [Huber et al., 2021]; [Pellissier et al., 2021]). The culture medium was completely removed from all wells of the plate. Finally, the luciferase activity of the firefly and Renilla luciferases was detected sequentially in individual wells of a 384-well plate through injection of corresponding measurement solutions and immediate reading (400 ms integration time) in Infinite M Plex multifunctional plate reader with injection module.

[1] = test system: non-cancerous breast epithelial cell line MCF10a; assay: MTT survival assay MCF10a; format: cell-based; conditions: for IC50: Homo sapiens, MCF-10A
Method: as §1

[2] = test system: MDA-MB-231 TNBC cell line; assay: MTT survival assay MDA-MB-231; format: cell-based; conditions: for IC50: Homo sapiens
Method: as §1

[3] = test system: β-catenin-dependent Wnt-pathway; assay: TopFlash luciferase reporter assay, CHIR99021-stimulated, HCC1395; format: cell-based; conditions: for HCC1395 TopFlash Efficacy / Emax / IC50: stimulation with CHIR99021 (GSK3β inhibitor); for Emax / IC50: Homo sapiens; for Emax: read-out: HCC1395 TopFlash Efficacy; for IC50: read-out: HCC1395 TopFlash IC50; for fold improvement in the activity compared to 4a: TopFlash IC50 vs 4a
Description: Both stimulations abolish formation of the destruction complex, a multiprotein complex consisting of Axin, adenomatous polyposis coli (APC), glycogen synthase kinase three beta (GSK3β), and casein kinase one alpha (CK1α). Upon inactivation of the complex, β-catenin accumulates in the cytoplasm and translocates into the nucleus where it interacts with transcription factors. These downstream events are quantified by a Luciferase transcription-based readout assay (TopFlash assay).

[4] = test system: MDA-MB-468 TNBC cell line; assay: MTT survival assay MDA-MB-468; format: cell-based; conditions: Homo sapiens, MDA-MB-468; Table S2
Method: as §1

HCC1395 TNBC cell line = assay: MTT survival assay HCC1395; format: cell-based; conditions: Homo sapiens, HCC1395; Table S2; read-out: MTT HCC-1395 IC50
Method: as §1

BT-20 TNBC cell line = assay: MTT survival assay BT-20; format: cell-based; conditions: Homo sapiens, BT-20; Table S2; read-out: MTT BT-20 IC50
Method: as §1

[5] = Table S2, read-out: MTT HCC1806 IC50
[6] = Table S2, read-out: MTT MCF10 IC50
[7] = MDA-MB-231, Table S2, read-out: MTT MDA-MB-231 IC50

SMILES	IC50 (HCC1806 TNBC cell line; [5])	MTT HCC1806 Comments (HCC1806 TNBC cell line; Table S2)	IC50 (in vitro; HCC1395 Cytotoxicity IC50)	IC50 [1, 6]	IC50 [2, 7]	HCC1395 TopFlash Efficacy ([3]; HCC1395)	Emax ([3]; HCC1395, HCC1395)	IC50 ([3]; HCC1395, HCC1395)	fold improvement in the activity compared to 4a [3]	IC50 [4]	IC50 (HCC1395 TNBC cell line)	IC50 (BT-20 TNBC cell line)	MTT MDA-MB-231 Comments ([2]; Table S2)	MTT MDA-MB-231 plateau ([2]; Table S2)	also measured
COc1ccccc1CNc1ncnc2sccc12 [Compound 4b, N-(2-methoxybenzyl)thieno[2,3-d]pyrimidin-4-amine]	> 50 µM	Inactive	> 50 µM	33.2 µM	> 50 µM	40.7 ± 3.1%	40.7%	2.79 ± 0.67 µM	3 fold	11.8 µM	8.17 µM	> 50 µM			IC50 ([1]; Figure 3B heatmap, read-out: IC50, μM (MCF10)): > 10 µM; IC50 ([2]; MDA-MB-231, Figure 3B heatmap, read-out: IC50, μM (MDA-MB-231)): > 10 µM
COc1ccc(CNc2ncnc3sccc23)cc1 [Compound 4d, N-(4-methoxybenzyl)thieno[2,3-d]pyrimidin-4-amine]	46.5 µM			> 50 µM	> 50 µM			> 50 µM		14.2 µM	> 50 µM	39.8 µM	Inactive		IC50 (HCC1806 TNBC cell line; Figure 3B heatmap, read-out: IC50, μM (HCC1806)): > 50 µM; TopFlash activity in words ([3]; HCC1395, CHIR99021): abrogated the activity; GSK HCC1395 Comments ([3]; Table S2): Inactive
Clc1ccc(CNc2ncnc3sccc23)cc1 [Compound 4j, N-(4-chlorobenzyl)thieno[2,3-d]pyrimidin-4-amine]	26.2 µM		> 50 µM	20.4 µM	45.3 µM		74.6 ± 12%	3.19 ± 1.64 µM	2 fold	3.93 µM	1.42 µM	6.29 µM		92.63	
Cc1cccc(CNc2ncnc3sccc23)c1 [Compound 4n, N-(3-methylbenzyl)thieno[2,3-d]pyrimidin-4-amine]	> 10 µM	Inactive	> 50 µM	> 10 µM	> 10 µM		52.9 ± 6.8%	3.76 ± 1.9 µM		0.48 µM	1.05 µM	4.72 µM	Inactive		MTT MCF10 Comments ([1]; Table S2): Inactive
Cc1ccc(CNc2ncnc3sccc23)cc1 [Compound 4o, N-(4-methylbenzyl)thieno[2,3-d]pyrimidin-4-amine]	2.71 µM		> 50 µM	6.18 µM	> 10 µM		72.7 ± 19.5%	4.61 ± 1.91 µM	2 fold	1.02 µM	1.35 µM	2.85 µM	Inactive		
COc1cc(CNc2ncnc3sccc23)ccc1Cl [Compound 4q, N-(4-chloro-3-methoxybenzyl)thieno[2,3-d]pyrimidin-4-amine]	> 10 µM	Inactive	> 50 µM	> 10 µM	> 10 µM		68.5 ± 2.9%	1.33 ± 0.07 µM		0.57 µM	0.63 µM	0.96 µM	Inactive		MTT MCF10 Comments ([1]; Table S2): Inactive
CN(CCc1ccccc1)c1ncnc2sccc12 [Compound 5j, N-methyl-N-phenethylthieno[2,3-d]pyrimidin-4-amine]	17.2 µM		> 50 µM	1.53 µM	4.71 µM	100 ± 0%	100%	2.04 ± 2.55 µM		0.92 µM	2.07 µM	1.63 µM		92.68	selectivity over the control cells (difference in IC50, MCF10a vs HCC1395) ([1]; MTT IC50 ratio MCF10a / HCC1395): less than 3 fold
COc1ccc(CNc2ncnc3ccccc23)cc1 [Compound 9c, N-(4-methoxybenzyl)quinazolin-4-amine]	> 10 µM	Inactive		7.94 µM	> 10 µM	81.5 ± 10.61%	81.5%	4.76 ± 0.23 µM		0.44 µM	1.17 µM	3.81 µM	Inactive		IC50 (in vitro): > 50 µM
Clc1ccc(CNc2ncnc3ccccc23)cc1 [Compound 9e, N-(4-chloro)quinazolin-4-amine]	11.4 µM			> 10 µM	26.9 µM					2.22 µM	0.92 µM	9.6 µM		100	IC50 (in vitro): > 50 µM; IC50 ([2]; MDA-MB-231, read-out: IC50, μM (MDA-MB-231)): > 10 µM; Emax ([3]; HCC1395): 96 ± 5.7%; IC50 ([3]; HCC1395): 2.18 ± 0.85 µM
